Here are results for two compounds from US20240336657A1, “G-ALPHA-S PEPTIDE INHIBITORS AND USES THEREOF” (The Regents of the University of California, priority 2021, published 2024).

Assay [1] has as its system biotinylated Gαs WT and His-tagged Gβγ(C68S). Description: FRET based Gα/Gβγ interaction assay. Type of assay: binding, human. As to conditions: Gαs/Gβγ versus Gαi/Gβγ. The protocol: When we compared our GD20-bound Gαs structure with another GDP-bound Gαs structure in complex with Gβγ (FIG. 20D) (Liu et al., 2019), we noticed that GD20 induces a significant conformational shift of the Gβγ binding surface, and GD20 occupies the Gβγ binding surface in a competitive manner (FIGS. 20E-20F). […] Finally, 2× stocks of cyclic peptides were added with the protein mixtures. After incubation at room temperature for 2 hour at room temperature. The plate was read on a TECAN Spark 20 M plate reader using the TR-FRET mode with the following parameters: Lag time: […], Integration time: […], Read A: Ex 320(25) nm (filter), Em 610(20) nm (filter), Gain 130, Read B: Ex 320(25) nm (filter), Em 665(8) nm (filter), Gain 165. FRET Signal was calculated as the ratio of [Read B]/[Read A].

For a further assay, the target named is Gαs S275L (Homo sapiens, UniProt P63092, S275L). Put plainly: Adenylyl cyclase activity assay in membranes of GNAS KO HEK293 cells transfected with Gαs S275L. As to conditions: Gαs S275L reintroduced. Further details: expressed in transfected cells; host or cells: GNAS KO HEK293 cells (membranes). The format is biochemical. The text has this:
To further assess the cellular specificity of GN13, we designed a GN13-resistant Gαs mutant based on structural analysis. […] We reasoned that mutating this serine residue to a bulky residue should create a drug-resistant Gαs mutant that blocks the GN13-Gαs interaction but would have little effect on adenylyl cyclase activation. […] By contrast, when the drug resistant mutant Gαs S275L was reintroduced into GNAS KO cells, the inhibitory effect of GN13 was abolished (FIG. 3I), providing further evidence that the observed pharmacological activity is due to GN13 binding to the switch II/α3 pocket in Gαs.
(§1) GN13 inhibition of Gαs proteins in HEK293 cell membranes (FIG. 17F and FIG. 18F).
(§2) a. Cell membrane preparation: HEK293cells, GNAS KO HEK293 cells were plated two day before transfection at a density of 1M cells per 10 cm plate. […] The protein concentrations were measured using BCA, and were normalized to 750 μg/mL. […] The cAMP concentrations were measured by the LANCE Ultra cAMP kit. […]
(§3) A cAMP standard curve was generated in the same plate using the 50 μM cAMP standard in the kit. […] 10 μL of each diluted sample was mixed with 5 μL of 4× Eu-cAMP tracer and 5 μL of 4× ULight-anti-cAMP in a white, opaque Optiplate-384 microplate, incubated for 1 hour at room temperature, and the time-resolved fluorescence resonance energy transfer (TR-FRET) signals were read on a Spark 20M plate reader. […]

A further assay has as its target Gαs (Homo sapiens, UniProt P63092). Description: Adenylyl cyclase activity assay in HEK293 cell membranes, β2AR stimulated by isoproterenol. As to conditions: GTP/GDP 500/50 μM, 2 hours preincubation, 40 μM isoproterenol, read-out: IC50, inhibition of ISO-stimulated Gαs activity (cAMP). On the set-up: endogenous in cells; host or cells: HEK293 cell membranes. Type of assay: biochemical. The procedure:
We sought to test the efficacy of GN13 in B2-adrenergic receptor (β2AR) mediated second messenger stimulation in cell membranes. Membrane anchored GDP-bound Gαs is inhibited by Gβγ in the resting state. It can undergo GPCR mediated GDP to GTP exchange upon agonist stimulation (Weis and Kobilka, 2018). The presence of GN13 could potentially capture the newly generated GTP-bound Gαs and inhibit its activation (FIG. 17E). To test this idea, we incubated cell membranes prepared from HEK293 cells with GN13 and examined cAMP accumulation with or without stimulation of β2-adrenergic receptor (β2AR) by isoproterenol (ISO).
as §1, §2, §3

Positions of bridges follow the written chain, without caps; N, C: chain ends. Non-standard residues stand in square brackets, D forms with d. Residues, ends and D or L forms follow the SMILES beside them.

Chain of Gαs S275L (P63092 whole entry S275L): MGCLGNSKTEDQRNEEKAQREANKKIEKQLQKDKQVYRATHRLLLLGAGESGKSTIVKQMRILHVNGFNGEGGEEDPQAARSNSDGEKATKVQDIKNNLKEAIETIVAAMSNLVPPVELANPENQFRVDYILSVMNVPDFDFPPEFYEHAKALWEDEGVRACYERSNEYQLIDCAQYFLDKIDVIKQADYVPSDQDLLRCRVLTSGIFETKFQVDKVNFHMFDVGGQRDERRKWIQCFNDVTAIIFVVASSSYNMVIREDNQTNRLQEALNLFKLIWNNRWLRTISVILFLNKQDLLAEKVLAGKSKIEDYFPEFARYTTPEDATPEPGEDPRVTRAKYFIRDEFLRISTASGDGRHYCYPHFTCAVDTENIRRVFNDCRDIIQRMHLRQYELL
Chain of Gαs (P63092 whole entry): as the sequence (P63092 whole entry S275L) above, with L275S counted along it

Consider `CC[C@H](C)[C@@H]1NC(=O)[C@H](CC(C)C)NC(=O)[C@@H](Cc2ccc(O)cc2)NC(=O)CSC[C@@H](C(=O)NCC(N)=O)NC(=O)[C@@H]2CCCN2C(=O)[C@H](CC(C)C)NC(=O)[C@H](CC(N)=O)NC(=O)[C@H](CC(C)C)NC(=O)[C@H](C)NC(=O)[C@H](Cc2c[nH]c3ccccc23)NC(=O)[C@H](CCC(N)=O)NC(=O)[C@H](CCCNC(=N)N)NC(=O)[C@H](Cc2ccccc2)NC(=O)[C@H]([C@@H](C)O)NC1=O` [GD20-F10L] ({CH2CO}-[dY]LITFRQWALNLPCG-NH2; thioether N-14), for which, in assay [1], the “selectivity for Gαs than Gαi in the FRET assay” value is given as 100 fold. In general, IC50 refers to the concentration needed to halve the response being measured. As to `CC[C@H](C)[C@@H]1NC(=O)[C@H](C)NC(=O)[C@H](Cc2ccc(O)cc2)NC(=O)[C@H](C(C)C)NC(=O)[C@H](CO)NC(=O)[C@H](CCC(=O)O)NC(=O)[C@H](Cc2ccccc2)NC(=O)[C@@H](Cc2ccc(O)cc2)NC(=O)CSC[C@@H](C(=O)NCC(N)=O)NC(=O)[C@H](CC(C)C)NC(=O)[C@H]([C@@H](C)O)NC(=O)CNC(=O)[C@H](Cc2c[nH]c3ccccc23)NC1=O` [GN13] ({CH2CO}-[dY]FESVYAIWGTLCG-NH2; thioether N-13), the “inhibition of isoproterenol-mediated cAMP production in cell membranes” value against Gαs S275L was “abolished”. Further, at Gαs, the IC50 is 12.2 ± 2.51 µM.
